Tests used:
[1] = system: Colletotrichum orbiculare; assay: Test for preventive effect for cucumber anthracnose; conditions: cucumber (Sagamihanjiro), soil drench 10 ml, inoculated 7 days later, lesions counted 7 days after
Procedure: Four cucumber seeds (variety: Sagamihanjiro) were sowed in a plastic cup of 5.5 cm in diameter, at a depth of 2 cm, and were grown in a greenhouse for 7 days. […] 10 ml of the dilution was poured into the soil at the root of young cucumber seedlings having cotyledons. 7 days later, a conidia suspension (10^5 to 10^6/ml) of Colletotrichum orbiculare which had been cultured in a PDA plate medium, was uniformly inoculated to the cucumber plant by hand spraying. The cup was allowed to stand in a moist chamber of 25° C. for 24 hours. Then, the cup was allowed to stand on a basin in a glass greenhouse and, 7 day later, the number of lesions of all cotyledons in pot was examined. A protective value was calculated from the expression 1 and evaluated according to the standard of Table 2.
Using a comparative compound shown below, a wettable powder was prepared according to Example 5. A control number thereof was calculated in the same manner as in the above Test Example.

Pyricularia oryzae = type: in vivo; conditions: paddy rice (Aichi Asahi), root treatment with wettable powder, active ingredient 30 g per 10 ares; inoculated 26 days after treatment; lesions counted 8 days after inoculation
[2] = concentration of active ingredient 1 ppm
[3] = concentration of active ingredient 10 ppm

Row | Structure (SMILES) | Evaluation (protective value) [1, 2] | Evaluation (protective value) [1, 3] | Evaluation (protective value) (Pyricularia oryzae) | melting point [°C]
1 | O=S1(=O)N=C(OCc2ccncc2)c2ccccc21 [Comparative compound 1, reference compound] | D (protective value: less than 50.0%) | B (protective value: less than 90.0% to 80.0% or more) | C (protective value: less than 80.0% to 50.0% or more) | 
2 | O=S1(=O)N=C(OCc2snc(Cl)c2Cl)c2ccccc21 [Compound No. 1, 3-(3,4-dichloroisothiazol-5-ylmethoxy)-1,2-benzoisothiazole 1,1-dioxide] | A (protective value: 100% to 90.0% or more) | A (protective value: 100% to 90.0% or more) | B (protective value: less than 90.0% to 80.0% or more) | 
3 | C=CCOC1=NS(=O)(=O)c2ccccc21 [Probenazole, reference compound] |  |  | C (protective value: less than 80.0% to 50.0% or more) | 
4 | Cc1cc(COC2=NS(=O)(=O)c3ccccc32)sn1 [compound 5, 3-(3-methylisothiazol-5-ylmethoxy)-1,2-benzoisothiazole 1,1-dioxide] | D (protective value: less than 50.0%) | A (protective value: 100% to 90.0% or more) | B (protective value: less than 90.0% to 80.0% or more) | 202 to 204

From patent publication US7714140B2, “1,2 Benzoisothiazole derivative, and agricultural or horticultural plant disease- controlling agent” (Kumiai Chemical Industry, Co. Ltd., priority 2006, dated 2010)
